Results: US9156845B2, “4-(substituted amino)-7H-pyrrolo[2,3-d] pyrimidines as LRRK2 inhibitors” (Pfizer Inc., priority 2012, dated 2015)

Legend:
p70S6K, p70S6Kb = assay: ActivX kinase probe assay (human PBMC); assay type: binding
MAP3K1 = MAP3K1 (Homo sapiens (Human), UniProt Q13233); assay: ActivX kinase probe assay (human PBMC); assay type: binding; conditions: MAP3K1, read-out: percent inhibition
RSK1 domain2 = RSK1 domain2 (Homo sapiens (Human), UniProt Q15418); assay: ActivX kinase probe assay (human PBMC); assay type: binding; conditions: RSK1 domain2, read-out: percent inhibition
JAK3 domain2 = JAK3 domain2 (Homo sapiens (Human), UniProt P52333); assay: ActivX kinase probe assay (human PBMC); assay type: binding; conditions: JAK3 domain2, read-out: percent inhibition
TLK1 = TLK1 (Homo sapiens (Human), UniProt Q9UKI8); assay: ActivX kinase probe assay (human PBMC); assay type: binding; conditions: TLK1, read-out: percent inhibition
KHS1 = KHS1 (Homo sapiens (Human), UniProt Q9Y4K4); assay: ActivX kinase probe assay (human PBMC); assay type: binding; conditions: KHS1, read-out: percent inhibition
Wnk1, Wnk2, Wnk4 = assay: ActivX kinase probe assay (human PBMC); assay type: binding
AMPKa1 = AMPKa1 (Homo sapiens (Human), UniProt Q13131); assay: ActivX kinase probe assay (human PBMC); assay type: binding; conditions: AMPKa1, read-out: percent inhibition
ACK = ACK (Homo sapiens (Human), UniProt Q07912); assay: ActivX kinase probe assay (human PBMC); assay type: binding; conditions: ACK, read-out: percent inhibition
FES = FES (Homo sapiens (Human), UniProt P07332); assay: ActivX kinase probe assay (human PBMC); assay type: binding; conditions: FES, read-out: percent inhibition
SGK3 = SGK3 (Homo sapiens (Human), UniProt Q96BR1); assay: ActivX kinase probe assay (human PBMC); assay type: binding; conditions: SGK3, read-out: percent inhibition
ZC2/TNIK = ZC2/TNIK (Homo sapiens (Human), UniProt Q9UKE5); assay: ActivX kinase probe assay (human PBMC); assay type: binding; conditions: ZC2/TNIK, read-out: percent inhibition
NEK9 = NEK9 (Homo sapiens (Human), UniProt Q8TD19); assay: ActivX kinase probe assay (human PBMC); assay type: binding; conditions: NEK9, read-out: percent inhibition
NDR1 = NDR1 (Homo sapiens (Human), UniProt Q15208); assay: ActivX kinase probe assay (human PBMC); assay type: binding; conditions: NDR1, read-out: percent inhibition
IRAK4 = IRAK4 (Homo sapiens (Human), UniProt Q9NWZ3); assay: ActivX kinase probe assay (human PBMC); assay type: binding; conditions: IRAK4, read-out: percent inhibition
IRAK4, sequence (Q9NWZ3 whole entry): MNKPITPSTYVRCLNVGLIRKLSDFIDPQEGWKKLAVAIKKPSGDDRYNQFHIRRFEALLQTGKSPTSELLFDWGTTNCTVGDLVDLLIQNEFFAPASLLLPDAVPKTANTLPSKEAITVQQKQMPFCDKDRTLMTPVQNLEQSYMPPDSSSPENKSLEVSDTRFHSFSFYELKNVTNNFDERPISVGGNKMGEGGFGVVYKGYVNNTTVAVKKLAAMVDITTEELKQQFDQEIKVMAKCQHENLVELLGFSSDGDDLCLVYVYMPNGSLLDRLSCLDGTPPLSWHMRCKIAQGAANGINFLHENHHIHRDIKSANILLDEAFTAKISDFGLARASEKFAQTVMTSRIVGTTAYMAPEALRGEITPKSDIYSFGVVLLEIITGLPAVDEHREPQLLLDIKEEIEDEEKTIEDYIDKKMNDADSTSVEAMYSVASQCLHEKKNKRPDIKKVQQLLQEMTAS

MAP3K4 = MAP3K4 (Homo sapiens (Human), UniProt Q9Y6R4); assay: ActivX kinase probe assay (human PBMC); assay type: binding; conditions: MAP3K4, read-out: percent inhibition
MAP2K1, MAP2K2 = assay: ActivX kinase probe assay (human PBMC); assay type: binding
DNAPK = DNAPK (Homo sapiens (Human), UniProt P78527); assay: ActivX kinase probe assay (human PBMC); assay type: binding; conditions: DNAPK, read-out: percent inhibition
DNAPK, sequence (P78527 whole entry): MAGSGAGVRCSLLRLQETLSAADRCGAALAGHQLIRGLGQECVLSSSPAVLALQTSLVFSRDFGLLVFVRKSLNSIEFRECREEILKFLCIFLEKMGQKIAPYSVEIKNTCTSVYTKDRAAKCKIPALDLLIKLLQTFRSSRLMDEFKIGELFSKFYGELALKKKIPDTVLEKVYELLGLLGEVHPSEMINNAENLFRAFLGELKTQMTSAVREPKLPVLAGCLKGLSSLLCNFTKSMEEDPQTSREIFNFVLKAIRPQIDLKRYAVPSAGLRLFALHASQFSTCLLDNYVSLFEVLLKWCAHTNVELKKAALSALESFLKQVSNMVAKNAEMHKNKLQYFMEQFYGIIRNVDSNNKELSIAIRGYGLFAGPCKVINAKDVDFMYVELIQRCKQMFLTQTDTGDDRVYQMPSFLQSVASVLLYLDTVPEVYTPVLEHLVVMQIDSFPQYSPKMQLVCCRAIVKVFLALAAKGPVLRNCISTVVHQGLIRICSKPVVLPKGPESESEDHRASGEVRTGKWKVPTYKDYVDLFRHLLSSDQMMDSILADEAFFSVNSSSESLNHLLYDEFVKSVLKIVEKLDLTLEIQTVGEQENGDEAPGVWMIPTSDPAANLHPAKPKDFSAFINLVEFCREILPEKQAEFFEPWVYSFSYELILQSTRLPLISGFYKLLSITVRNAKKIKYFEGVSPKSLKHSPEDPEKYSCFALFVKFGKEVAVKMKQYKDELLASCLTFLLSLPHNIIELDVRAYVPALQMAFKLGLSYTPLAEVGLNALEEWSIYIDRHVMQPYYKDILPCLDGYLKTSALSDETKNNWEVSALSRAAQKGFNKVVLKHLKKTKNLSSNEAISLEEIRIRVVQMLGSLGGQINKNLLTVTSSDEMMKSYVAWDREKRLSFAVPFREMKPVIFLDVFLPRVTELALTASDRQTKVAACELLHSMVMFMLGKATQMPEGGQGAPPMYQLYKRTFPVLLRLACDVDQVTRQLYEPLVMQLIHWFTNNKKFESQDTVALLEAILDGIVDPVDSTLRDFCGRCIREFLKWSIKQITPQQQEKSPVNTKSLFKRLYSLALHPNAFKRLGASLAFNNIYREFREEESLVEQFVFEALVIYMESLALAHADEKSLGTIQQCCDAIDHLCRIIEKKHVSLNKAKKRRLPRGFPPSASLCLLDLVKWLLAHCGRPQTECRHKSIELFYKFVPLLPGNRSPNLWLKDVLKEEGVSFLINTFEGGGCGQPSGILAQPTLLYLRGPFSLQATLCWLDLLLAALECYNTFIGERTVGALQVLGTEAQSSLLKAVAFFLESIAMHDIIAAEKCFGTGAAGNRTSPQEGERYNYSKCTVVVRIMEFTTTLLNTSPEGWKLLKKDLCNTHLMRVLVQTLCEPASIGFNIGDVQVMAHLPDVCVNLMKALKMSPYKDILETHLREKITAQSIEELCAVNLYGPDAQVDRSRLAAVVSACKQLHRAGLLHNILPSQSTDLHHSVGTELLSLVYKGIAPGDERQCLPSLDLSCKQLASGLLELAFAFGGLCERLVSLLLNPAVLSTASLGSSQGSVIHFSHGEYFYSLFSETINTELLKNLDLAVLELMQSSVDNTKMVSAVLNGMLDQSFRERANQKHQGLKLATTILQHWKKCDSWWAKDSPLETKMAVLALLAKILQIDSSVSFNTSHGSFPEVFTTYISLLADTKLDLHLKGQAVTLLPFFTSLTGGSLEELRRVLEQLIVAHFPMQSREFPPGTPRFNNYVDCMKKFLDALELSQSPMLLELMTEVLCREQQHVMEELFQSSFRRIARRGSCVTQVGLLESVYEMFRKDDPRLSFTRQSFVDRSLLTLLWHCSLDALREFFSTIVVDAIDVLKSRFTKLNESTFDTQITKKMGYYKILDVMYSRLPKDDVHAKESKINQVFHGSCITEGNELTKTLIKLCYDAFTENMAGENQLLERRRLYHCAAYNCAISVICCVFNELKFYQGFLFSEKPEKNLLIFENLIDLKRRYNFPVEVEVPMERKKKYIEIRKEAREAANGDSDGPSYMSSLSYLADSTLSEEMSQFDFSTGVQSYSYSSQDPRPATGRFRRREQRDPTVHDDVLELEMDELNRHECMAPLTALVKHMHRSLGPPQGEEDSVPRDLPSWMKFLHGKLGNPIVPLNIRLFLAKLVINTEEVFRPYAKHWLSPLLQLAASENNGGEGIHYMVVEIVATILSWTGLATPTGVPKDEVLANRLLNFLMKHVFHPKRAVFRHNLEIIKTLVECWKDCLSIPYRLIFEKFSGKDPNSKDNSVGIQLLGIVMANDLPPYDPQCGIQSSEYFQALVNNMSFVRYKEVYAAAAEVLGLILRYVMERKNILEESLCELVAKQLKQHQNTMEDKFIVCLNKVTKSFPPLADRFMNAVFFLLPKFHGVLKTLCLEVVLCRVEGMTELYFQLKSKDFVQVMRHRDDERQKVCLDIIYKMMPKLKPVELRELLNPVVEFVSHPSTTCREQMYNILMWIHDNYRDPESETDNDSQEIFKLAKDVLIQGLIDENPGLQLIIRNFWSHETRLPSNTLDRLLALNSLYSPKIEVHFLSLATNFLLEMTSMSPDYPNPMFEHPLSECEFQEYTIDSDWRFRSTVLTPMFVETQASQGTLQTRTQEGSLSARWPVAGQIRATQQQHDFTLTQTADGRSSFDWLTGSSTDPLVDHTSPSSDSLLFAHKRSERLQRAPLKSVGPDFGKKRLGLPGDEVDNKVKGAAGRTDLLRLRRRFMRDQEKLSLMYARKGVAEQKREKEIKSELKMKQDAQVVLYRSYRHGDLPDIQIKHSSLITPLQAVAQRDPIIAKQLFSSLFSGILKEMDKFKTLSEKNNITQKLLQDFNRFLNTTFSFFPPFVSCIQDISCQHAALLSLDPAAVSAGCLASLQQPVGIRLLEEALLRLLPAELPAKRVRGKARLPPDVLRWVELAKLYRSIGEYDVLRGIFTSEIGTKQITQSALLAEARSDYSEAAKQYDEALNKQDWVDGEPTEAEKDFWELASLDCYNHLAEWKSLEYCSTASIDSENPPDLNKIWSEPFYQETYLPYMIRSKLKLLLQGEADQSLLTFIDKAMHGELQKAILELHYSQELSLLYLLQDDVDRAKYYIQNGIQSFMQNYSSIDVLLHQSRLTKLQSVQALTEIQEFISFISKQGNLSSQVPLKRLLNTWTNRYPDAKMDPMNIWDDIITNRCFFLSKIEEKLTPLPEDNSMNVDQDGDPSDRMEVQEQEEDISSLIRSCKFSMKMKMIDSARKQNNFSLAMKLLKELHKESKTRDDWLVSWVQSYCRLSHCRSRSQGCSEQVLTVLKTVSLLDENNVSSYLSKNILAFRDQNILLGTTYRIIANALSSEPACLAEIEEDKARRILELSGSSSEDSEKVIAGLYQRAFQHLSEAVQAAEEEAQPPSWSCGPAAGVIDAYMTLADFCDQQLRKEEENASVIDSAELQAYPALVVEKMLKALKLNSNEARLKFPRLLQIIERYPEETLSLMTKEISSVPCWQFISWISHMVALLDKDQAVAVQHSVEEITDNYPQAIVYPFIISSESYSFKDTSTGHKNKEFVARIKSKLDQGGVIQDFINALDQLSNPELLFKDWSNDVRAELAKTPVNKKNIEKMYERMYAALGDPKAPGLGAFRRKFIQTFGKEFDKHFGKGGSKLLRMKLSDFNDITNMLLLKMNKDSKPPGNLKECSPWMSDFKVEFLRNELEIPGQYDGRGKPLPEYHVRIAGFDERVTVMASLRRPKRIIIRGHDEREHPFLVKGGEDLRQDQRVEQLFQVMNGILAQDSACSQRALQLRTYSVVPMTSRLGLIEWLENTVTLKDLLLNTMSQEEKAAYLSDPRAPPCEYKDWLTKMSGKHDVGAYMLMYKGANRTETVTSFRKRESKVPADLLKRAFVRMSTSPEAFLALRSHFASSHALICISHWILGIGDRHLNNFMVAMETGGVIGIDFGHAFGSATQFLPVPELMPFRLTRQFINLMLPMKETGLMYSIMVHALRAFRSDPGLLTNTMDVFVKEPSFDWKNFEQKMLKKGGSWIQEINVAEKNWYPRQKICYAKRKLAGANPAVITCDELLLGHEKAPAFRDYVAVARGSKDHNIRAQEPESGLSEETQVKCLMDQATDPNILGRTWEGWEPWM

CaMK2g = CaMK2g (Homo sapiens (Human), UniProt Q13555); assay: ActivX kinase probe assay (human PBMC); assay type: binding; conditions: CaMK2g, read-out: percent inhibition
CaMK2g, sequence (Q13555 whole entry): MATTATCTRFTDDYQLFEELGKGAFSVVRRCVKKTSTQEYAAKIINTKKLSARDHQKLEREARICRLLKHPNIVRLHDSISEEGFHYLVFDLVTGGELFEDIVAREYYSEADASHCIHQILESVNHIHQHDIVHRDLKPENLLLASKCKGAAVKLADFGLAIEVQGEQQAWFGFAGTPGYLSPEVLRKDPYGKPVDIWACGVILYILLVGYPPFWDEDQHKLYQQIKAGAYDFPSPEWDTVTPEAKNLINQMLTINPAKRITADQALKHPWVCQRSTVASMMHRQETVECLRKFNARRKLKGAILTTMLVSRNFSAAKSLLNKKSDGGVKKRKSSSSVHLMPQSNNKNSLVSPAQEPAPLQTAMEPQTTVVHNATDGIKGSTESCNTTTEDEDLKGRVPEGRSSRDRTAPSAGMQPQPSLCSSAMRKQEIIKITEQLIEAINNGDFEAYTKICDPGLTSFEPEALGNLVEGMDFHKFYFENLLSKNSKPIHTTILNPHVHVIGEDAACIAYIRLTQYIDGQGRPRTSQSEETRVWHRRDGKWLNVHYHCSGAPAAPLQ

PAN3 = PAN3 (Homo sapiens (Human), UniProt Q58A45); assay: ActivX kinase probe assay (human PBMC); assay type: binding; conditions: PAN3, read-out: percent inhibition
ILK = ILK (Homo sapiens (Human), UniProt Q13418); assay: ActivX kinase probe assay (human PBMC); assay type: binding; conditions: ILK, read-out: percent inhibition
PITSLRE = assay: ActivX kinase probe assay (human PBMC); assay type: binding
[1] = molecular target: GST-tagged truncated LRRK2 (Homo sapiens (Human), UniProt Q5S007); assay: LRRK2 Lantha Screen kinase assay; assay type: biochemical; conditions: geometric mean of 2-5 determinations unless otherwise indicated (a: >=6 determinations; b: single determination); read-out: LRRK2 WT IC50
PKD2 = PKD2 (Homo sapiens (Human), UniProt Q9BZL6); assay: ActivX kinase probe assay (human PBMC); assay type: binding; conditions: PKD2, read-out: percent inhibition
MLK3 = MLK3 (Homo sapiens (Human), UniProt Q16584); assay: ActivX kinase probe assay (human PBMC); assay type: binding; conditions: MLK3, read-out: percent inhibition
RSK2 domain2 = RSK2 domain2 (Homo sapiens (Human), UniProt P51812); assay: ActivX kinase probe assay (human PBMC); assay type: binding; conditions: RSK2 domain2, read-out: percent inhibition
MAP2K4 = MAP2K4 (Homo sapiens (Human), UniProt P45985); assay: ActivX kinase probe assay (human PBMC); assay type: binding; conditions: MAP2K4, read-out: percent inhibition
GSK3B = GSK3B (Homo sapiens (Human), UniProt P49841); assay: ActivX kinase probe assay (human PBMC); assay type: binding; conditions: GSK3B, read-out: percent inhibition
TAO2 = TAO2 (Homo sapiens (Human), UniProt Q9UL54); assay: ActivX kinase probe assay (human PBMC); assay type: binding; conditions: TAO2, read-out: percent inhibition
MAP3K3 = MAP3K3 (Homo sapiens (Human), UniProt Q99759); assay: ActivX kinase probe assay (human PBMC); assay type: binding; conditions: MAP3K3, read-out: percent inhibition
MLKL = MLKL (Homo sapiens (Human), UniProt Q8NB16); assay: ActivX kinase probe assay (human PBMC); assay type: binding; conditions: MLKL, read-out: percent inhibition
SYK = SYK (Homo sapiens (Human), UniProt P43405); assay: ActivX kinase probe assay (human PBMC); assay type: binding; conditions: SYK, read-out: percent inhibition
IKKa = IKKa (Homo sapiens (Human), UniProt O15111); assay: ActivX kinase probe assay (human PBMC); assay type: binding; conditions: IKKa, read-out: percent inhibition
STLK5 = STLK5 (Homo sapiens (Human), UniProt Q7RTN6); assay: ActivX kinase probe assay (human PBMC); assay type: binding; conditions: STLK5, read-out: percent inhibition
IKKe, TBK1 = assay: ActivX kinase probe assay (human PBMC); assay type: binding

Cn1cc(-c2c[nH]c3ncnc(N4CCOCC4)c23)cc1C#N [Example 217, 1-methyl-4-[4-(morpholin-4-yl)-7H-pyrrolo[2,3-d]pyrimidin-5-yl]-1H-pyrrole-2-carbonitrile]
percent inhibition (p70S6K, p70S6Kb; 0.1 μM): 5.5% | percent inhibition (p70S6K, p70S6Kb; 1 μM): 5.4% | inhibition at 0.1 µM (MAP3K1; 0.1 μM): -17.3% | inhibition at 1 µM (MAP3K1; 1 μM): 14.8% | inhibition at 0.1 µM (RSK1 domain2; 0.1 μM): -3.4% | inhibition at 1 µM (RSK1 domain2; 1 μM): 5% | inhibition at 0.1 µM (JAK3 domain2; 0.1 μM): -7.8% | inhibition at 1 µM (JAK3 domain2; 1 μM): 4.9% | inhibition at 0.1 µM (TLK1; 0.1 μM): 7.6% | inhibition at 1 µM (TLK1; 1 μM): 16.7% | inhibition at 0.1 µM (KHS1; 0.1 μM): 10.7% | inhibition at 1 µM (KHS1; 1 μM): 7.6% | percent inhibition (Wnk1, Wnk2, Wnk4; 0.1 μM): 2.2% | percent inhibition (Wnk1, Wnk2, Wnk4; 1 μM): −5.4% | inhibition at 0.1 µM (AMPKa1; 0.1 μM): 27.2% | inhibition at 1 µM (AMPKa1; 1 μM): 48.8% | inhibition at 0.1 µM (ACK; 0.1 μM): -9.8% | inhibition at 1 µM (ACK; 1 μM): -19.5% | inhibition at 0.1 µM (FES; 0.1 μM): 8.4% | inhibition at 1 µM (FES; 1 μM): 6.2% | inhibition at 0.1 µM (SGK3; 0.1 μM): 8.5% | inhibition at 1 µM (SGK3; 1 μM): 16.9% | inhibition at 0.1 µM (ZC2/TNIK; 0.1 μM): -10.7% | inhibition at 1 µM (ZC2/TNIK; 1 μM): 3.9% | inhibition at 0.1 µM (NEK9; 0.1 μM): -11% | inhibition at 1 µM (NEK9; 1 μM): 1.5% | inhibition at 0.1 µM (NDR1; 0.1 μM): 16.3% | inhibition at 1 µM (NDR1; 1 μM): -17.7% | inhibition at 0.1 µM (IRAK4; 0.1 μM): 14.7% | inhibition at 1 µM (IRAK4; 1 μM): 34.5% | inhibition at 0.1 µM (MAP3K4; 0.1 μM): -35.5% | inhibition at 1 µM (MAP3K4; 1 μM): -27.4% | percent inhibition (MAP2K1, MAP2K2; 0.1 μM): 10.9% | percent inhibition (MAP2K1, MAP2K2; 1 μM): −2.6% | inhibition at 0.1 µM (DNAPK; 0.1 μM): 31% | inhibition at 1 µM (DNAPK; 1 μM): 31.5% | inhibition at 0.1 µM (CaMK2g; 0.1 μM): 4.3% | inhibition at 1 µM (CaMK2g; 1 μM): 18.7% | inhibition at 0.1 µM (PAN3; 0.1 μM): 5.6% | inhibition at 1 µM (PAN3; 1 μM): -7.5% | inhibition at 0.1 µM (ILK; 0.1 μM): -6.3% | inhibition at 1 µM (ILK; 1 μM): -3.8% | percent inhibition (PITSLRE; 0.1 μM): −6.7% | percent inhibition (PITSLRE; 1 μM): 6.6% | IC50 [1]: 6.37 nM | inhibition at 0.1 µM (PKD2; 0.1 μM): 5.8% | inhibition at 1 µM (PKD2; 1 μM): 4.5% | inhibition at 0.1 µM (MLK3; 0.1 μM): -13.5% | inhibition at 1 µM (MLK3; 1 μM): -9.6% | inhibition at 0.1 µM (RSK2 domain2; 0.1 μM): -4.1% | inhibition at 1 µM (RSK2 domain2; 1 μM): 2.8% | inhibition at 0.1 µM (MAP2K4; 0.1 μM): 2.3% | inhibition at 1 µM (MAP2K4; 1 μM): 1.6% | inhibition at 0.1 µM (GSK3B; 0.1 μM): -4.3% | inhibition at 1 µM (GSK3B; 1 μM): 12.4% | inhibition at 0.1 µM (TAO2; 0.1 μM): -20.2% | inhibition at 1 µM (TAO2; 1 μM): -18.4% | inhibition at 0.1 µM (MAP3K3; 0.1 μM): -3.4% | inhibition at 1 µM (MAP3K3; 1 μM): -6.7% | inhibition at 0.1 µM (MLKL; 0.1 μM): 2.5% | inhibition at 1 µM (MLKL; 1 μM): -3.3% | inhibition at 0.1 µM (SYK; 0.1 μM): -2% | inhibition at 1 µM (SYK; 1 μM): -5.1% | inhibition at 0.1 µM (IKKa; 0.1 μM): -2.5% | inhibition at 1 µM (IKKa; 1 μM): -3.7% | inhibition at 0.1 µM (STLK5; 0.1 μM): -6.9% | inhibition at 1 µM (STLK5; 1 μM): -11.5% | percent inhibition (IKKe, TBK1; 0.1 μM): 2.3% | percent inhibition (IKKe, TBK1; 1 μM): 13.3%
